Experiments:
HT-29 = test: Cytotoxicity evaluated against colon cancer cell line (HT-29); format: functional, cell-based; settings: Homo sapiens
[1] = In vitro cytotoxicity evaluated in mouse heart endotheliaoma cell (MHEC5-T) after incubation of the cells for 1 hr; format: functional, cell-based
[2] = In vitro cytotoxicity evaluated in mouse heart endotheliaoma cell (MHEC5-T) after incubation of the cells for 5 days; format: functional, cell-based; settings: 120 h
Mus musculus = test: Vascular shutdown expressed as vessel density decrease in percent of the control at the dose of 100 mg/kg; format: functional

COc1ccc(/C=C\c2cc(OC)c(OC)c(OC)c2)cc1OP(=O)([O-])[O-].[Na+].[Na+] [FOSBRETABULIN DISODIUM]
IC50 (HT-29): 0.2 µM
IC50 [1]: 0.8 µM
IC50 [2]: 0.002 µM
Vessel density decrease vs control (Mus musculus): 88%

CCCCCCCCOP(=O)(O)Oc1cc(/C=C\c2cc(OC)c(OC)c(OC)c2)ccc1OC.N
IC50 [1]: 25 µM
IC50 [2]: 0.07 µM
Vessel density decrease vs control (Mus musculus): 89%

COc1ccc(/C=C\c2cc(OC)c(OC)c(OC)c2)cc1OP(=O)(O)OC1CCCCC1.N
IC50 [1]: > 25 µM
IC50 [2]: 3 µM
Vessel density decrease vs control (Mus musculus): 0%

COc1ccc(/C=C\c2cc(OC)c(OC)c(OC)c2)cc1OP(=O)(O)Oc1cccc(Cl)c1.N
IC50 [1]: > 25 µM
IC50 [2]: 3 µM
Vessel density decrease vs control (Mus musculus): 90%

COc1ccc(/C=C\c2cc(OC)c(OC)c(OC)c2)cc1OP(=O)(O)OC.N
IC50 [1]: 38 µM
IC50 [2]: 0.07 µM
Vessel density decrease vs control (Mus musculus): 0%

CCCCOP(=O)(OCCCC)Oc1cc(/C=C\c2cc(OC)c(OC)c(OC)c2)ccc1OC
IC50 [1]: 8 µM
IC50 [2]: 0.26 µM
Vessel density decrease vs control (Mus musculus): 0%

COc1ccc(/C=C\c2cc(OC)c(OC)c(OC)c2)cc1OP(=O)([O-])Oc1cc(/C=C\c2cc(OC)c(OC)c(OC)c2)ccc1OC.[Na+]
IC50 [1]: > 25 µM
IC50 [2]: 0.51 µM
Vessel density decrease vs control (Mus musculus): 0%

COc1ccc(/C=C\c2cc(OC)c(OC)c(OC)c2)cc1OP(=O)(O)OCC(F)(F)F.N
IC50 [1]: 10 µM
IC50 [2]: 0.06 µM
Vessel density decrease vs control (Mus musculus): 0%

COc1ccc(/C=C\c2cc(OC)c(OC)c(OC)c2)cc1OCCCS(=O)(=O)[O-].[Na+]
IC50 [1]: > 25 µM
IC50 [2]: > 25 µM
Vessel density decrease vs control (Mus musculus): 10%

COc1ccc(/C=C\c2cc(OC)c(OC)c(OC)c2)cc1O [COMBRETASTATIN A4]
IC50 [1]: 1.05 µM
IC50 [2]: 0.004 µM
Vessel density decrease vs control (Mus musculus): 71%

COc1ccc(/C=C\c2cc(OC)c(OC)c(OC)c2)cc1OP(=O)(OC)OC
IC50 [1]: 35 µM
IC50 [2]: 0.13 µM
Vessel density decrease vs control (Mus musculus): 20%

From ChEMBL document CHEMBL1136422, “Synthesis, in vitro, and in vivo evaluation of phosphate ester derivatives of combretastatin A-4” (Bioorg Med Chem Lett, 2003)
